The record followed here is patent US20250019378A1, “PYRROLE[2,3-B]PYRIDINE DERIVATIVES AS TYRO3 INHIBITORS” (HALIA THERAPEUTICS, INC., priority 2021, published 2025).

SMILES strings stand for the structures.

Chain of recombinant human Tyro3 (Q06418 41-890): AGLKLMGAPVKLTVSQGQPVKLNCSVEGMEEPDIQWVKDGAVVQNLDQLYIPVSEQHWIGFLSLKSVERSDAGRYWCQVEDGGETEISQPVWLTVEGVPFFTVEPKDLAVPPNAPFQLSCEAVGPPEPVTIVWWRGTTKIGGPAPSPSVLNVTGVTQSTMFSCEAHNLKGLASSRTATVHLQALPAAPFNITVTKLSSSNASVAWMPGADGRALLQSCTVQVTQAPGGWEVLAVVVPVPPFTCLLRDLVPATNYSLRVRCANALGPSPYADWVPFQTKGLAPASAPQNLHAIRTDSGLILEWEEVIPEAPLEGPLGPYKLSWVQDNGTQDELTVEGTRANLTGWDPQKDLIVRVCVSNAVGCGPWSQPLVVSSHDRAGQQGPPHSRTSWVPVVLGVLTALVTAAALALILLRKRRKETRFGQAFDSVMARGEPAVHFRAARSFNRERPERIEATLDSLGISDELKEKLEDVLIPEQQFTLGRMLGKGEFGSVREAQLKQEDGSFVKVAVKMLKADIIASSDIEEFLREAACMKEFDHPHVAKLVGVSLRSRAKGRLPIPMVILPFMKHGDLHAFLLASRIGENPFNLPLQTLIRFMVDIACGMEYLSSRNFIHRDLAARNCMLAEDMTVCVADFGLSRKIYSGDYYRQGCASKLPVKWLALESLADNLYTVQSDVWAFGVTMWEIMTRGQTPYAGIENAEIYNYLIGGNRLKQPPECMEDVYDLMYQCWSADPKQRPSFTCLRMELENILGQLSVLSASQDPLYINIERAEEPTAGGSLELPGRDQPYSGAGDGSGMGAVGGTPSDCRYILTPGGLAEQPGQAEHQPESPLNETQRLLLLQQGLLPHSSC

In the experiment the target is recombinant human Tyro3 (Homo sapiens (Human), UniProt Q06418). In words: Tyro3 Enzymatic Assay. The class given is biochemical. The conditions noted are these: radiometric [32P]-ATP kinase assay, Poly(Glu, Tyr) substrate, 2 nM enzyme. As to the method:
Poly(Glu, Tyr) sodium salt (Glu:Tyr (4:1), quality level 200, molecular weight 5,000-20,000, obtained from Sigma Aldrich, catalogue #P7244, assay concentration 0.20 mg/mL) and recombinant human Tyro3 (obtained from ThermoFisher Scientific, catalogue #PV3828, assay concentration 2 nM) were mixed in assay buffer (20 mM Hepes pH 7.5, 10 mM MgCl2, […] EGTA, 0.02% Brij35, 0.02 mg/ml BSA, 0.1 mM Na3VO4, 2 mM DTT, 1% DMSO, with added MnCl2 at a final concentration of 2 mM). Compounds of interest (in DMSO, serial 3-fold dilution from 10 μM to 0.5 nM) or control (1% DMSO) were dispensed into the kinase reaction mixture by Acoustic technology (Echo550; nanoliter range). After incubation at room temperature for 20 minutes, the kinase reaction was initiated by addition of [^32P]-ATP (Specific activity 10 μCi/μL) and the mixture was incubated at room temperature for 2 hours. The reaction was then stopped by spotting the reaction mixture on strips of phosphocellulose P81 paper. Following washing, the radioactivity of the P81 paper was measured and kinase activity data were expressed as the percent remaining kinase activity in test samples compared to vehicle (dimethyl sulfoxide) reactions. IC50 values and curve fits were obtained using Prism (GraphPad Software).
Consider `COc1nn(C2CCN(C)CC2)cc1-c1cnc2[nH]cc(-c3cccc(F)c3)c2c1` [Compound 10, 3-(3-fluorophenyl)-5-(3-methoxy-1-(1-methylpiperidin-4-yl)-1H-pyrazol-4-yl)-1H-pyrrolo[2,3-b]pyridine], for which the IC50 was under 50 nM.

In the case of `COc1ccc(-c2c[nH]c3ncc(-c4cnn(C5CC(OC)C5)c4)cc23)cn1` (stereo not shown) [Compound 33, 5-(1-(3-methoxycyclobutyl)-1H-pyrazol-4-yl)-3-(6-methoxypyridin-3-yl)-1H-pyrrolo[2,3-b]pyridine], the IC50 was over 500 nM. Consider `CCc1[nH]c2ncc(-c3cn(C4CCN(C)CC4)nc3OC)cc2c1-c1ccc(OC)nc1` [Compound 21, 2-ethyl-5-(3-methoxy-1-(1-methylpiperidin-4-yl)-1H-pyrazol-4-yl)-3-(6-methoxypyridin-3-yl)-1H-pyrrolo[2,3-b]pyridine], for which the IC50 was in the range of 51 to 150 nM.

Take `COc1ccc(-c2c[nH]c3ncc(-c4ccn(C5CCN(C)CC5)n4)cc23)cn1` [Compound 6, 3-(6-methoxypyridin-3-yl)-5-(1-(1-methylpiperidin-4-yl)-1H-pyrazol-3-yl)-1H-pyrrolo[2,3-b]pyridine]: the IC50 is over 500 nM.
